Test results published in US10093623B2, “Cyclic amides as MetAP-2 inhibitors” (MERCK PATENT GmbH, priority 2012, dated 2018).

The molecules below were run against MetAP-2 (Homo sapiens, UniProt P50579) (assay: MetAP-2 activity measurement (coupled enzymatic reactions, Met-Arg-Ser substrate, dianisidine detection at 450 nm)). Conditions: Inhibition of MetAP-2; read-out: IC50 enzyme.
Type: biochemical
Method in brief: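 Rate read from the linear part of the 450 nm absorbance trace. Dianisidine oxidation by peroxidase reports H2O2 made when amino acid oxidase acts on methionine cleaved from MAS tripeptide, one mol dye per mol Met; extinction coefficient gives molar activity.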

MetAP-2, sequence (P50579 whole entry, species assumed): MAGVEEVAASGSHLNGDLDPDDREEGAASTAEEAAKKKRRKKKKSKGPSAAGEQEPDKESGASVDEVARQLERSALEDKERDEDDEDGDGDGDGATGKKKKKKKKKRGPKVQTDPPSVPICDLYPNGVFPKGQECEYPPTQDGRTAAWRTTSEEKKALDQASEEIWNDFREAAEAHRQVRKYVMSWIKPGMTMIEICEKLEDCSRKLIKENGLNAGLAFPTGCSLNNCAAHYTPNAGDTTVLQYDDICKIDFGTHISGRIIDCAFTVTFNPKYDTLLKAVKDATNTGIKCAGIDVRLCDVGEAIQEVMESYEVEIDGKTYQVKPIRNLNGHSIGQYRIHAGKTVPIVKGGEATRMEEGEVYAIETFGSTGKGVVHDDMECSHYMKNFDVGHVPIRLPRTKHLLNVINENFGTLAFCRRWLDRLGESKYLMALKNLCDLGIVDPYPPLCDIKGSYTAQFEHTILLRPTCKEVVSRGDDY

| IC50 [µM] | Structure (SMILES) |
| --- | --- |
| 0.01 to 1 | NC(=O)c1cc(N2CCC(O)(C(=O)NCc3cc(F)cc(Cl)c3)C2=O)ccc1F (stereo not drawn) [B28, N-(3-Chloro-5-fluorobenzyl)-1-(3-carbamoyl-4-fluorophenyl)-3-hydroxy-2-oxopyrrolidine-3-carboxamide] |
| 0.01 to 1 | O=C1N(c2ccccc2)CCC1(O)CNCc1cc(F)cc(Cl)c1 (stereo not drawn) [B29, 3-[(3-Chloro-5-fluorobenzylamino)methyl]-3-hydroxy-1-phenylpyrrolidin-2-one] |
| > 10 | OC1(CNCc2cc(F)cc(Cl)c2)CCN(Cc2ccccc2)C1 (stereo not drawn) [B30, 1-Benzyl-3-[(3-chloro-5-fluorobenzylamino)methyl]-pyrrolidin-3-ol] |
| 0.01 to 1 | O=C1N(Cc2ccccc2)CCCC1(O)CNCc1cc(F)cc(Cl)c1 (stereo not drawn) [B31, 1-Benzyl-3-[(3-chloro-5-fluorobenzylamino)methyl]-3-hydroxypiperidin-2-one] |
| 0.01 to 1 | O=C1N(c2ccccc2)CCCC1(O)CNCc1cc(F)cc(Cl)c1 (stereo not drawn) [B32, 3-[(3-Chloro-5-fluorobenzylamino)methyl]-3-hydroxy-1-phenylpiperidin-2-one] |
| 0.01 to 1 | Cc1nc2cc(N3CCC(O)(C(=O)NCc4cc(F)cc(Cl)c4)C3=O)cnc2[nH]1 (stereo not drawn) [B33, N-(3-Chloro-5-fluorobenzyl)-3-hydroxy-1-(2-methyl-3H-imidazo[4,5-b]pyridin-6-yl)-2-oxopyrrolidine-3-carboxamide] |
| 0.01 to 1 | O=C(NCc1cc(F)cc(Cl)c1)C1(O)CCN(c2cnc3[nH]cnc3c2)C1=O (stereo not drawn) [B35, N-(3-Chloro-5-fluorobenzyl)-3-hydroxy-1-(3H-imidazo[4,5-b]-pyridin-6-yl)-2-oxopyrrolidine-3-carboxamide] |
| 1 to 10 | O=C(NCc1cc(F)cc(Cl)c1)C1(O)CCN(c2cnc3[nH]c(C(F)(F)F)nc3c2)C1=O (stereo not drawn) [B36, N-(3-Chloro-5-fluorobenzyl)-3-hydroxy-2-oxo-1-(2-trifluoromethyl-3H-imidazo-[4,5-b]pyridin-6-yl)pyrrolidine-3-carboxamide] |
| 0.01 to 1 | O=C(NCc1cc(F)cc(Cl)c1)[C@@]1(O)CCN(CCc2c[nH]c3ccccc23)C1=O [B37, N-(3-Chloro-5-fluorobenzyl)-(S)-3-hydroxy-1-[2-(1H-indol-3-yl)-ethyl]-2-oxopyrrolidine-3-carboxamide] |
| 1 to 10 | O=C(NCc1cc(F)cc(Cl)c1)[C@]1(O)CCN(CCc2c[nH]c3ccccc23)C1=O [B38, N-(3-Chloro-5-fluorobenzyl)-(R)-3-hydroxy-1-[2-(1H-indol-3-yl)-ethyl]-2-oxopyrrolidine-3-carboxamide] |
| 0.01 to 1 | O=C(NCc1cc(F)cc(Cl)c1)[C@@]1(O)CCN(c2cc(C(F)(F)F)ccc2F)C1=O [B39, N-(3-Chloro-5-fluorobenzyl)-(S)-1-(2-Fluoro-5-trifluoromethyl-phenyl)-3-hydroxy-2-oxo-pyrrolidine-3-carboxamide] |
| 0.01 to 1 | O=C(NCc1cc(F)cc(Cl)c1)[C@@]1(O)CCN(c2ccc3[nH]c(=O)ccc3c2)C1=O [B40, N-(3-Chloro-5-fluorobenzyl)-(S)-3-hydroxy-2-oxo-1-(2-oxo-1,2-dihydroquinolin-6-yl)pyrrolidine-3-carboxamide] |
| 1 to 10 | O=C(NCc1cc(F)cc(Cl)c1)[C@]1(O)CCN(c2ccc3[nH]c(=O)ccc3c2)C1=O [B41, N-(3-Chloro-5-fluorobenzyl)-(R)-3-hydroxy-2-oxo-1-(2-oxo-1,2-dihydroquinolin-6-yl)pyrrolidine-3-carboxamide] |
| 1 to 10 | O=C(NCc1cc(F)cc(Cl)c1)[C@]1(O)CCN(c2cc(C(F)(F)F)ccc2F)C1=O [B42, N-(3-Chloro-5-fluorobenzyl)-(R)-1-(2-Fluoro-5-trifluoromethyl-phenyl)-3-hydroxy-2-oxo-pyrrolidine-3-carboxamide] |
| 0.01 to 1 | O=C(NCc1cc(F)cc(Cl)c1)C1(O)CCN(c2ccc3[nH]cc(C(F)(F)F)c3c2)C1=O (stereo not drawn) [B43, N-(3-Chloro-5-fluorobenzyl)-3-hydroxy-2-oxo-1-(3-trifluoromethyl-1H-indol-5-yl)-pyrrolidine-3-carboxamide] |
